In PubChem BioAssay (NCI):
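96-well plates; 48 h exposure; 5 concentrations. Endpoints by linear interpolation between flanking doses. Not reached: highest tested concentration assigned. GI50 = concentration required for 50% inhibition of growth. TGI: concentration producing complete growth inhibition.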

What was measured:
Experiment in all cases: NCI-60 cell line screen, 48 h
786-0 renal = system: 786-0 renal
A498 renal = system: A498 renal
A549 NSCLC = system: A549 NSCLC
ACHN renal = system: ACHN renal
BT-549 breast = system: BT-549 breast
CAKI-1 renal = system: CAKI-1 renal
CCRF-CEM leukemia = system: CCRF-CEM leukemia
COLO 205 colon = system: COLO 205 colon
DU-145 prostate = system: DU-145 prostate
EKVX NSCLC = system: EKVX NSCLC
HCC-2998 colon = system: HCC-2998 colon
HCT-116 colon = system: HCT-116 colon
HCT-15 colon = system: HCT-15 colon
HOP-62 NSCLC = system: HOP-62 NSCLC
HOP-92 NSCLC = system: HOP-92 NSCLC
HS 578T breast = system: HS 578T breast
HT29 colon = system: HT29 colon
IGROV1 ovarian = system: IGROV1 ovarian
KM12 colon = system: KM12 colon
LOX IMVI melanoma = system: LOX IMVI melanoma
M14 melanoma = system: M14 melanoma
MALME-3M melanoma = system: MALME-3M melanoma
MCF7 breast = system: MCF7 breast
MDA-MB-231 breast = system: MDA-MB-231 breast
MDA-MB-435 = system: MDA-MB-435
MOLT-4 leukemia = system: MOLT-4 leukemia
NCI-H226 lung = system: NCI-H226 lung
NCI-H23 lung = system: NCI-H23 lung
NCI-H460 lung = system: NCI-H460 lung
NCI-H522 lung = system: NCI-H522 lung
NCI/ADR-RES ovarian = system: NCI/ADR-RES ovarian
OVCAR-3 ovarian = system: OVCAR-3 ovarian
OVCAR-4 ovarian = system: OVCAR-4 ovarian
OVCAR-5 ovarian = system: OVCAR-5 ovarian
OVCAR-8 ovarian = system: OVCAR-8 ovarian
PC-3 prostate = system: PC-3 prostate
RPMI-8226 leukemia = system: RPMI-8226 leukemia
RXF 393 renal = system: RXF 393 renal
SF-268 CNS = system: SF-268 CNS
SF-295 CNS = system: SF-295 CNS
SF-539 CNS = system: SF-539 CNS
SK-MEL-2 melanoma = system: SK-MEL-2 melanoma
SK-MEL-28 melanoma = system: SK-MEL-28 melanoma
SK-MEL-5 melanoma = system: SK-MEL-5 melanoma
SK-OV-3 ovarian = system: SK-OV-3 ovarian
SN12C renal = system: SN12C renal
SNB-19 CNS = system: SNB-19 CNS
SNB-75 CNS = system: SNB-75 CNS
SR leukemia = system: SR leukemia
SW-620 colon = system: SW-620 colon
T-47D breast = system: T-47D breast
TK-10 renal = system: TK-10 renal
U251 CNS = system: U251 CNS
UACC-257 melanoma = system: UACC-257 melanoma
UACC-62 melanoma = system: UACC-62 melanoma
UO-31 renal = system: UO-31 renal

CC(=O)c1ccc(N(/C=C/C(=O)C(F)(F)F)CC(=O)c2ccc(Cl)c(Cl)c2)cc1
GI50 (786-0 renal): 17.8 µM | TGI (786-0 renal): 32 µM | GI50 (A498 renal): 14.5 µM | TGI (A498 renal): 28.2 µM | GI50 (A549 NSCLC): 14.2 µM | TGI (A549 NSCLC): 33.5 µM | GI50 (ACHN renal): 14.4 µM | TGI (ACHN renal): 27.7 µM | GI50 (BT-549 breast): 19.9 µM | TGI (BT-549 breast): 38.9 µM | GI50 (CAKI-1 renal): 16.4 µM | TGI (CAKI-1 renal): 33.1 µM | GI50 (CCRF-CEM leukemia): 10.4 µM | TGI (CCRF-CEM leukemia): 36.9 µM | GI50 (COLO 205 colon): 22.6 µM | TGI (COLO 205 colon): 65 µM | GI50 (DU-145 prostate): 19.2 µM | TGI (DU-145 prostate): 36.1 µM | GI50 (EKVX NSCLC): 19.9 µM | TGI (EKVX NSCLC): 38.5 µM | GI50 (HCC-2998 colon): 18.5 µM | TGI (HCC-2998 colon): 34.9 µM | GI50 (HCT-116 colon): 13.4 µM | TGI (HCT-116 colon): 26.2 µM | GI50 (HCT-15 colon): 13.4 µM | TGI (HCT-15 colon): 29.2 µM | GI50 (HOP-62 NSCLC): 15.3 µM | TGI (HOP-62 NSCLC): 28.7 µM | GI50 (HOP-92 NSCLC): 13.5 µM | TGI (HOP-92 NSCLC): 29 µM | GI50 (HS 578T breast): 20.3 µM | TGI (HS 578T breast): 45.2 µM | GI50 (HT29 colon): 24.4 µM | TGI (HT29 colon): > 100 µM | GI50 (IGROV1 ovarian): 13.9 µM | TGI (IGROV1 ovarian): 28.4 µM | GI50 (KM12 colon): 12.8 µM | TGI (KM12 colon): 27.1 µM | GI50 (LOX IMVI melanoma): 12.4 µM | TGI (LOX IMVI melanoma): 26.8 µM | GI50 (M14 melanoma): 13.3 µM | TGI (M14 melanoma): 26.7 µM | GI50 (MALME-3M melanoma): 11.7 µM | TGI (MALME-3M melanoma): 25 µM | GI50 (MCF7 breast): 15.3 µM | TGI (MCF7 breast): 65.3 µM | GI50 (MDA-MB-231 breast): 11.6 µM | TGI (MDA-MB-231 breast): 25 µM | GI50 (MDA-MB-435): 3.43 µM | TGI (MDA-MB-435): 11.7 µM | GI50 (MOLT-4 leukemia): 4.18 µM | TGI (MOLT-4 leukemia): 27.2 µM | GI50 (NCI-H226 lung): 10.9 µM | TGI (NCI-H226 lung): 27.3 µM | GI50 (NCI-H23 lung): 18 µM | TGI (NCI-H23 lung): 35.6 µM | GI50 (NCI-H460 lung): 15.6 µM | TGI (NCI-H460 lung): > 100 µM | GI50 (NCI-H522 lung): 13.2 µM | TGI (NCI-H522 lung): 27.7 µM | GI50 (NCI/ADR-RES ovarian): 18.2 µM | TGI (NCI/ADR-RES ovarian): 38.4 µM | GI50 (OVCAR-3 ovarian): 13.9 µM | TGI (OVCAR-3 ovarian): 27.5 µM | GI50 (OVCAR-4 ovarian): 14 µM | TGI (OVCAR-4 ovarian): 33.4 µM | GI50 (OVCAR-5 ovarian): 18.6 µM | TGI (OVCAR-5 ovarian): 35.9 µM | GI50 (OVCAR-8 ovarian): 16.1 µM | TGI (OVCAR-8 ovarian): 31.4 µM | GI50 (PC-3 prostate): 11.5 µM | TGI (PC-3 prostate): 30.2 µM | GI50 (RPMI-8226 leukemia): 9.64 µM | TGI (RPMI-8226 leukemia): 36.6 µM | GI50 (RXF 393 renal): 13.9 µM | TGI (RXF 393 renal): 30.4 µM | GI50 (SF-268 CNS): 14.2 µM | TGI (SF-268 CNS): 31.5 µM | GI50 (SF-295 CNS): 12.3 µM | TGI (SF-295 CNS): 26.2 µM | GI50 (SF-539 CNS): 20.5 µM | TGI (SF-539 CNS): 36.6 µM | GI50 (SK-MEL-2 melanoma): 15.3 µM | TGI (SK-MEL-2 melanoma): 30.4 µM | GI50 (SK-MEL-28 melanoma): 16.5 µM | TGI (SK-MEL-28 melanoma): 40.7 µM | GI50 (SK-MEL-5 melanoma): 17.7 µM | TGI (SK-MEL-5 melanoma): 32.4 µM | GI50 (SK-OV-3 ovarian): 18.1 µM | TGI (SK-OV-3 ovarian): 38.9 µM | GI50 (SN12C renal): 15 µM | TGI (SN12C renal): 28.8 µM | GI50 (SNB-19 CNS): 19.3 µM | TGI (SNB-19 CNS): 41.6 µM | GI50 (SNB-75 CNS): 18 µM | TGI (SNB-75 CNS): 38.3 µM | GI50 (SR leukemia): 3.59 µM | TGI (SR leukemia): 19.3 µM | GI50 (SW-620 colon): 18.3 µM | TGI (SW-620 colon): 34.8 µM | GI50 (T-47D breast): 26.4 µM | TGI (T-47D breast): 75.4 µM | GI50 (TK-10 renal): 15.8 µM | TGI (TK-10 renal): 32.8 µM | GI50 (U251 CNS): 14 µM | TGI (U251 CNS): 27.7 µM | GI50 (UACC-257 melanoma): 15.2 µM | TGI (UACC-257 melanoma): 29.4 µM | GI50 (UACC-62 melanoma): 7.01 µM | TGI (UACC-62 melanoma): 19.8 µM | GI50 (UO-31 renal): 16.5 µM | TGI (UO-31 renal): 30.5 µM
